Like-named read-outs stand apart in the source and are kept apart here.
Tested on: 134 cancer cell lines
Experiment: Cell viability assay (ATPlite, 72 hours), IC50 on cancer cell line panel

SMILES: C[C@H]1Oc2cc(cnc2N)-c2c(nn(C)c2C#N)CN(C)C(=O)c2ccc(F)cc21 [lorlatinib]
- IC50 (Homo sapiens, LNCaP-Clone-FGC, read-out: IC50 in cell proliferation assay): > 31.6 µM
- IC50 (Homo sapiens, LS174T, read-out: IC50 in cell proliferation assay): 14.2 µM
- IC50 (Homo sapiens, LS-411N, read-out: IC50 in cell proliferation assay): 23.6 µM
- IC50 (Homo sapiens, LoVo, read-out: IC50 in cell proliferation assay): > 31.6 µM
- IC50 (Homo sapiens, MCF7, read-out: IC50 in cell proliferation assay): 17 µM
- IC50 (Homo sapiens, MDA-MB-231, read-out: IC50 in cell proliferation assay): > 31.6 µM
- IC50 (Homo sapiens, MDA-MB-453, read-out: IC50 in cell proliferation assay): > 31.6 µM
- IC50 (Homo sapiens, MDA-MB-468, read-out: IC50 in cell proliferation assay): > 31.6 µM
- IC50 (Homo sapiens, MG-63, read-out: IC50 in cell proliferation assay): 8.74 µM
- IC50 (Homo sapiens, MIA PaCa-2, read-out: IC50 in cell proliferation assay): > 31.6 µM
- IC50 (Homo sapiens, MKN-45, read-out: IC50 in cell proliferation assay): > 31.6 µM
- IC50 (Homo sapiens, MOLM-13, read-out: IC50 in cell proliferation assay): 21.1 µM
- IC50 (Homo sapiens, MOLT-4, read-out: IC50 in cell proliferation assay): 6.72 µM
- IC50 (Homo sapiens, MV4-11, read-out: IC50 in cell proliferation assay): 15.6 µM
- IC50 (Homo sapiens, MeWo, read-out: IC50 in cell proliferation assay): > 31.6 µM
- IC50 (Homo sapiens, NCCIT, read-out: IC50 in cell proliferation assay): > 31.6 µM
- IC50 (Homo sapiens, NCI-H82, read-out: IC50 in cell proliferation assay): 6.06 µM
- IC50 (Homo sapiens, NCI-H460, read-out: IC50 in cell proliferation assay): 18.4 µM
- IC50 (Homo sapiens, NCI-H661, read-out: IC50 in cell proliferation assay): 6.73 µM
- IC50 (Homo sapiens, NCI-H716, read-out: IC50 in cell proliferation assay): 9.52 µM
- IC50 (Homo sapiens, NCI-H1650, read-out: IC50 in cell proliferation assay): 23.9 µM
- IC50 (Homo sapiens, NCI-H1975, read-out: IC50 in cell proliferation assay): 9.89 µM
- IC50 (Homo sapiens, NCI-H2228, read-out: IC50 in cell proliferation assay): 0.000918 µM
- IC50 (Homo sapiens, OVCAR-3, read-out: IC50 in cell proliferation assay): > 31.6 µM
- IC50 (Homo sapiens, PFSK-1, read-out: IC50 in cell proliferation assay): 7.69 µM
- IC50 (Homo sapiens, RL95-2, read-out: IC50 in cell proliferation assay): 0.035 µM
- IC50 (Homo sapiens, RPMI-7951, read-out: IC50 in cell proliferation assay): 0.818 µM
- IC50 (Homo sapiens, RS4-11, read-out: IC50 in cell proliferation assay): 11.2 µM
- IC50 (Homo sapiens, Rec1, read-out: IC50 in cell proliferation assay): 8.26 µM
- IC50 (Homo sapiens, SHP77, read-out: IC50 in cell proliferation assay): > 31.6 µM
- IC50 (Homo sapiens, SK-BR-3, read-out: IC50 in cell proliferation assay): > 31.6 µM
- IC50 (Homo sapiens, SK-N-AS, read-out: IC50 in cell proliferation assay): > 31.6 µM
- IC50 (Homo sapiens, SK-N-FI, read-out: IC50 in cell proliferation assay): 21.5 µM
- IC50 (Homo sapiens, SK-N-MC, read-out: IC50 in cell proliferation assay): 6.17 µM
- IC50 (Homo sapiens, SK-N-SH, read-out: IC50 in cell proliferation assay): 5.69 µM
- IC50 (Homo sapiens, SNU-5, read-out: IC50 in cell proliferation assay): > 31.6 µM
- IC50 (Homo sapiens, SNU-16, read-out: IC50 in cell proliferation assay): 31.5 µM
- IC50 (Homo sapiens, SNU-C2B, read-out: IC50 in cell proliferation assay): > 31.6 µM
- IC50 (Homo sapiens, SU-DHL-1, read-out: IC50 in cell proliferation assay): 0.008 µM
- IC50 (Homo sapiens, SU-DHL-6, read-out: IC50 in cell proliferation assay): 24.1 µM
- IC50 (Homo sapiens, SUP-T1, read-out: IC50 in cell proliferation assay): 23.2 µM
- IC50 (Homo sapiens, SW48, read-out: IC50 in cell proliferation assay): 8.62 µM
- IC50 (Homo sapiens, SW480, read-out: IC50 in cell proliferation assay): > 31.6 µM
- IC50 (Homo sapiens, SW626, read-out: IC50 in cell proliferation assay): 8.56 µM
- IC50 (Homo sapiens, SW780, read-out: IC50 in cell proliferation assay): 16 µM
- IC50 (Homo sapiens, SW837, read-out: IC50 in cell proliferation assay): > 31.6 µM
- IC50 (Homo sapiens, SW872, read-out: IC50 in cell proliferation assay): 6.65 µM
- IC50 (Homo sapiens, SW900, read-out: IC50 in cell proliferation assay): 15.1 µM
- IC50 (Homo sapiens, SW948, read-out: IC50 in cell proliferation assay): 17 µM
- IC50 (Homo sapiens, SW982, read-out: IC50 in cell proliferation assay): 0.052 µM
- IC50 (Homo sapiens, SW-620, read-out: IC50 in cell proliferation assay): 17 µM
- IC50 (Homo sapiens, T98G, read-out: IC50 in cell proliferation assay): 11.4 µM
- IC50 (Homo sapiens, TCC-SUP, read-out: IC50 in cell proliferation assay): > 31.6 µM
- IC50 (Homo sapiens, THP-1, read-out: IC50 in cell proliferation assay): > 31.6 µM
- IC50 (Homo sapiens, U2OS, read-out: IC50 in cell proliferation assay): 8.64 µM
- IC50 (Homo sapiens, U-87 MG, read-out: IC50 in cell proliferation assay): > 31.6 µM
- IC50 (Homo sapiens, U-118-MG, read-out: IC50 in cell proliferation assay): > 31.6 µM
- IC50 (Homo sapiens, UMUC3, read-out: IC50 in cell proliferation assay): > 31.6 µM
- IC50 (Hs766T, read-out: IC50 in cell proliferation assay): > 31.6 µM
- IC50 (L-82, read-out: IC50 in cell proliferation assay): 0.00122 µM
- IC50 (Rh30, read-out: IC50 in cell proliferation assay): 9.22 µM

From PMC9516332 (Frontiers in Oncology, 2022)
